{"source": "patent US10961200B2", "about": "“Small molecule inhibitors of lactate dehydrogenase and methods of use thereof” (THE UNITED STATES OF AMERICA, AS REPRESENTED BY THE …, priority 2014, dated 2021)", "data": [{"target": "Human LDHA (Homo sapiens (Human), UniProt P00338)", "assay": "human LDHA primary biochemical assay (resazurin/diaphorase coupled, fluorescence)", "settings": "LDHA inhibitory activity, assay of Example 1; activity level classes", "from_the_text": "(§1) Test compounds were placed in a Greiner Bio-One (Monroe, N.C.) 1536-well black solid bottom assay plate. 200 millimolar (mM) Tris HCl, pH 7.4, 100 micromolar […] EDTA and 0.01% TWEEN-20™, final concentration, was used as the assay buffer. The LDHA reagent was 2 nanomolar (nM) Human LDHA (Meridian Life Science, Inc., Memphis, Tenn.), final concentration, in assay buffer.", "units": {"IC50": "µM"}, "values": [{"smiles": "CNS(=O)(=O)c1cc(-c2cc(O)n(-c3nc(C(=O)O)cs3)n2)ccc1F", "note": "[Compound 114, 2-(3-(4-fluoro-3-(N-methylsulfamoyl)phenyl)-5-hydroxy-1H-pyrazol-1-yl)thiazole-4-carboxylic acid]", "IC50": "> 57"}, {"smiles": "COC(=O)c1csc2c1c(=O)[nH]c1cc(-c3ccc(F)c(F)c3)nn12", "note": "[Compound 115, methyl 2-(3,4-difluorophenyl)-5-oxo-4,5-dihydropyrazolo[1,5-a]thieno[3,2-e]pyrimidine-6-carboxylate]", "IC50": "> 57"}, {"smiles": "O=C(O)c1csc2c1c(=O)[nH]c1cc(-c3ccc(F)c(F)c3)nn12", "note": "[Compound 116, 2-(3,4-difluorophenyl)-5-oxo-4,5-dihydropyrazolo[1,5-a]thieno[3,2-e]pyrimidine-6-carboxylic acid]", "IC50": "> 57"}, {"smiles": "CC(C)(C)OC(=O)c1csc(-n2nc(-c3ccc(F)c(F)c3)c(Cc3cccc(S(N)(=O)=O)c3)c2O)n1", "note": "[Compound 117, tert-butyl 2-(3-(3,4-difluorophenyl)-5-hydroxy-4-(3-sulfamoylbenzyl)-1H-pyrazol-1-yl)thiazole-4-carboxylate]", "IC50": "> 57"}, {"smiles": "CC(C)(C)OC(=O)c1csc(-n2nc(-c3ccc(F)c(F)c3)c(-c3ccccc3)c2O)n1", "note": "[Compound 118, tert-butyl 2-(3-(3,4-difluorophenyl)-5-hydroxy-4-phenyl-1H-pyrazol-1-yl)thiazole-4-carboxylate]", "IC50": "> 57"}, {"smiles": "O=C(O)c1csc(-n2nc(-c3ccc(F)c(F)c3)c3cccc(O)c32)n1", "note": "[Compound 119, 2-(3-(3,4-difluorophenyl)-7-hydroxy-1H-indazol-1-yl)thiazole-4-carboxylic acid]", "IC50": "> 57"}, {"smiles": "CCOC(=O)c1csc(-n2nc(-c3ccc(F)c(F)c3)cc2O)n1", "note": "[Compound 121, ethyl 2-(3-(3,4-difluorophenyl)-5-hydroxy-1H-pyrazol-1-yl)thiazole-4-carboxylate]", "IC50": "> 57"}, {"smiles": "CS(=O)(=O)NCCc1cc(-c2cc(O)n(-c3nc(C(=O)O)cs3)n2)ccc1F", "note": "[Compound 122, 2-(3-(4-fluoro-3-(2-(methylsulfonamido)ethyl)phenyl)-5-hydroxy-1H-pyrazol-1-yl)thiazole-4-carboxylic acid]", "IC50": "> 57"}, {"smiles": "CNS(=O)(=O)c1ccc(Cc2c(-c3cccc(-c4ccccc4)c3)nn(-c3nc(C(=O)O)cs3)c2O)cc1", "note": "[Compound 124, 2-(3-([1,1′-biphenyl]-3-yl)-5-hydroxy-4-(4-(N-methylsulfamoyl)benzyl)-1H-pyrazol-1-yl)thiazole-4-carboxylic acid]", "IC50": "> 57"}, {"smiles": "O=C(O)c1csc(-n2cc(-c3ccc(F)c(F)c3)c3cccc(O)c32)n1", "note": "[Compound 125, 2-(3-(3,4-difluorophenyl)-7-hydroxy-1H-indol-1-yl)thiazole-4-carboxylic acid]", "IC50": "> 57"}, {"smiles": "CC(=O)Nc1c(-c2ccccc2)nn(-c2nc(C(=O)O)cs2)c1O", "note": "[Compound 126, 2-(4-acetamido-5-hydroxy-3-phenyl-1H-pyrazol-1-yl)thiazole-4-carboxylic acid]", "IC50": "> 57"}, {"smiles": "NC(=O)c1csc(-n2nc(-c3ccccc3)c(Cc3ccc(S(N)(=O)=O)cc3)c2C(F)(F)F)n1", "note": "[Compound 127, 2-(3-phenyl-4-(4-sulfamoylbenzyl)-5-(trifluoromethyl)-1H-pyrazol-1-yl)thiazole-4-carboxamide]", "IC50": "> 57"}, {"smiles": "Nc1c(Cc2ccc(S(N)(=O)=O)cc2)c(-c2ccccc2)nn1-c1ccc(=O)[nH]n1", "note": "[Compound 128, 4-((5-amino-1-(6-oxo-1,6-dihydropyridazin-3-yl)-3-phenyl-1H-pyrazol-4-yl)methyl)benzenesulfonamide]", "IC50": "> 57"}, {"smiles": "CCOC(=O)c1cccc(-n2nc(-c3ccccc3)c(Cc3ccc(S(N)(=O)=O)cc3)c2N)c1", "note": "[Compound 129, ethyl 3-(5-amino-3-phenyl-4-(4-sulfamoylbenzyl)-1H-pyrazol-1-yl)benzoate]", "IC50": "> 57"}, {"smiles": "Nc1c(Cc2ccc(S(N)(=O)=O)cc2)c(-c2ccccc2)nn1-c1cccc(C(=O)O)c1", "note": "[Compound 130, 3-(5-amino-3-phenyl-4-(4-sulfamoylbenzyl)-1H-pyrazol-1-yl)benzoic acid]", "IC50": "> 57"}, {"smiles": "Nc1c(Cc2ccc(S(N)(=O)=O)cc2)c(-c2ccccc2)nn1-c1nc(CO)cs1", "note": "[Compound 131, 4-((5-amino-1-(4-(hydroxymethyl)thiazol-2-yl)-3-phenyl-1H-pyrazol-4-yl)methyl)benzenesulfonamide]", "IC50": "> 57"}, {"smiles": "NS(=O)(=O)c1ccc(Cc2c(-c3ccccc3)nn(-c3nc(CO)cs3)c2Cc2nnn[nH]2)cc1", "note": "[Compound 132, 4-((5-((1H-tetrazol-5-yl)methyl)-1-(4-(hydroxymethyl)thiazol-2-yl)-3-phenyl-1H-pyrazol-4-yl)methyl)benzenesulfonamide]", "IC50": "> 57"}, {"smiles": "COC(=O)c1csc(-n2nc(-c3ccccc3)c(Cc3ccc(S(N)(=O)=O)cc3)c2Cc2nnn[nH]2)n1", "note": "[Compound 133]", "IC50": "> 57"}, {"smiles": "CCOC(=O)c1csc(-n2nc(-c3ccccc3)c(Cc3ccc(S(N)(=O)=O)cc3)c2Cc2nnn[nH]2)n1", "note": "[Compound 134, ethyl 2-(5-((1H-tetrazol-5-yl)methyl)-3-phenyl-4-(4-sulfamoylbenzyl)-1H-pyrazol-1-yl)thiazole-4-carboxylate]", "IC50": "> 57"}, {"smiles": "CCOC(=O)c1csc(-n2nc(-c3ccccc3)c(Cc3ccc(S(N)(=O)=O)cc3)c2CC#N)n1", "note": "[Compound 135, ethyl 2-(5-(cyanomethyl)-3-phenyl-4-(4-sulfamoylbenzyl)-1H-pyrazol-1-yl)thiazole-4-carboxylate]", "IC50": "> 57"}, {"smiles": "Nc1c(Cc2ccc(S(N)(=O)=O)cc2)c(-c2ccccc2)nn1-c1nc(C(F)(F)F)cs1", "note": "[Compound 137, 4-((5-amino-3-phenyl-1-(4-(trifluoromethyl)thiazol-2-yl)-1H-pyrazol-4-yl)methyl)benzenesulfonamide]", "IC50": "> 57"}, {"smiles": "O=C(O)c1csc(-n2cc(CNS(=O)(=O)N3CCNCC3)c(-c3ccccc3)n2)n1", "note": "[Compound 138, 2-(3-phenyl-4-((piperazine-1-sulfonamido)methyl)-1H-pyrazol-1-yl)thiazole-4-carboxylic acid]", "IC50": "> 57"}, {"smiles": "NS(=O)(=O)c1ccc(NCc2cn(-c3nc(C(=O)O)cs3)nc2-c2ccccc2)cc1", "note": "[Compound 139, 2-(3-phenyl-4-(((4-sulfamoylphenyl)amino)methyl)-1H-pyrazol-1-yl)thiazole-4-carboxylic acid]", "IC50": "> 57"}, {"smiles": "CCOC(=O)c1ccc(-n2nc(-c3ccccc3)c(Cc3ccc(S(N)(=O)=O)cc3)c2N)nn1", "note": "[Compound 140, ethyl 6-(5-amino-3-phenyl-4-(4-sulfamoylbenzyl)-1H-pyrazol-1-yl)pyridazine-3-carboxylate]", "IC50": "> 57"}, {"smiles": "NS(=O)(=O)c1ccc(CNc2cn(-c3nc(C(=O)O)cs3)nc2-c2ccccc2)cc1", "note": "[Compound 142, 2-(3-phenyl-4-((4-sulfamoylbenzyl)amino)-1H-pyrazol-1-yl)thiazole-4-carboxylic acid]", "IC50": "> 57"}, {"smiles": "Cn1ncc(C(=O)n2nc(-c3ccccc3)c(Cc3ccc(S(N)(=O)=O)cc3)c2N)c1N", "note": "[Compound 143, 4-((5-amino-1-(5-amino-1-methyl-1H-pyrazole-4-carbonyl)-3-phenyl-1H-pyrazol-4-yl)methyl)benzenesulfonamide]", "IC50": "> 57"}]}, {"target": "Human LDHA (Homo sapiens (Human), UniProt P00338)", "assay": "human LDHA primary biochemical assay (resazurin/diaphorase coupled, fluorescence)", "settings": "read-out: Inhibitory activity IC50", "from_the_text": "as §1", "units": {"IC50": "µM"}, "values": [{"smiles": "CCOC(=O)c1csc(-n2nc(-c3ccc(F)c(F)c3)c(Cc3ccc(S(N)(=O)=O)cc3)c2N)n1", "note": "[Compound 123, ethyl 2-(5-amino-3-(3,4-difluorophenyl)-4-(4-sulfamoylbenzyl)-1H-pyrazol-1-yl)thiazole-4-carboxylate]", "IC50": "1 to 57"}]}]}
